Assay results reported in a melting point compilation (Tetko et al.; mined from patent text by program, amines drawn as free bases though some values may be those of a salt).

SMILES	melting point
O=[N+]([O-])c1cc(O)c(F)cc1F	117 to 119 °C
Cc1cc(Oc2ccc(NC(=O)c3ccccc3C(c3ccc(O)cc3)c3ccc(O)cc3)cn2)cc(C)c1Cl	125 °C
COc1cc(OC)c2c(=O)[nH]c(-c3cccc(OCCO)c3)nc2c1	245 to 246 °C
CCCCNC(=O)CN1C(=O)C(NC(=O)OCc2ccccc2)N=C(c2ccccc2)c2ccccc21 (configuration not stated)	127 to 129 °C
O=C(CCCCCNC(=O)CCc1ccccc1)NO	107 °C
COc1cc2nc(N3CCN(C(=O)C4CC4)CC3)nc(N)c2cc1OC	284 to 286 °C
CCCCOCCOc1ccc(-c2ccc3c(c2)C=C(C(=O)Nc2ccc(N(C)Cc4nncn4CCC)cc2)CCN3CCC)cc1	131 to 133 °C
Nc1cc(O)ccc1F	137 to 139 °C
CCOC(=O)NCCOc1ccc(Oc2cc(F)cc(F)c2)cc1	54 to 56 °C
CCCCCc1nc2c(N)nc3c(c2n1CCCCNS(C)(=O)=O)CCCC3	167 to 168 °C
COc1c(C(=O)O)cccc1[N+](=O)[O-]	224 to 226 °C
CC#CCOc1ccc(S(=O)(=O)C(C(=O)NO)c2ccc(OC)cc2)cc1 (configuration not stated)	190 °C
Cc1sc(C(N)=O)c2c1-c1nn(C)cc1CC2	276 to 277 °C
Cc1cn2cccc(CCl)c2n1	110 to 112 °C
CSc1ccc2cc(Nc3ccc(O)cc3)ccc2c1	127 to 128 °C
CCCC1Cc2cc(OCC(=O)O)c(Cl)c(Cl)c2C1=O (configuration not stated)	199 to 203 °C
CC(C)OC(=O)c1cc(-n2c(=O)c3c(n(C)c2=O)CCCC3)ccc1Cl	136 to 138 °C
CC12CCC3C(CC=C4CC(C(=O)CBr)CCC43C)C1CCC2=O (configuration not stated)	150 °C
COc1cc2nc(N3CCN(C(=O)CCCO)CC3)nc(N)c2cc1OC	241 to 243 °C
CCNc1ncc(-c2cc(Cl)cc(Cl)c2Cl)c(N)n1	149 to 152 °C
Cn1c(=O)[nH]c(=O)n(-c2cc(O)ccc2Br)c1=O	265 to 270 °C
O=C(O)CCNC(=O)[C@H](Cc1ccc(-c2ccccc2)cc1)NCP(=O)(Oc1ccccc1)Oc1ccccc1	102 °C
Cc1cc(C)cc(C(=O)N(N(C(=O)c2ccc3c(c2C)OCCO3)C(=O)N(C)C)C(C)(C)C)c1	60 to 64 °C
CCCNCC(O)c1ccc(Br)cc1 (configuration not stated)	72.5 to 74.5 °C

SMILES	melting point
O=C1c2c(F)c(F)c(F)c(F)c2C(=O)N1c1c[nH]c(=O)[nH]c1=O	350 to 355 °C
O=C1c2cccc(SCCC(O)O)c2C(=O)c2cccc(SCCC(O)O)c21	238 to 239 °C
COc1cc(/C=C/C(=O)CC(=O)/C=C/c2ccc(O)cc2Cl)ccc1O	185 to 192 °C
OCC1C=CC(n2cnc3c(Cl)ncnc32)C1 (configuration not stated)	121 to 124 °C
COc1cc(CO)ccc1NC(C)=O	104 °C
CC(=O)OCc1c(Br)cnc2c(NC(=O)c3c(Cl)cccc3Cl)cccc12	201 to 202 °C
CCCc1nc2c(C(F)(F)F)cccc2c(O)c1C(=O)OCC	98 °C
O=c1ncc(Br)cn1CCO	177 to 179 °C
O=C(O)CCc1cccc(-c2nc(=O)c3ccc(C(F)(F)F)cc3s2)n1	193 °C
Cc1noc(-c2ncn3c2[C@@H]2CCCN2C(=O)c2cc(F)ccc2-3)n1	248 to 249 °C
CC(C)C(O)(Cn1cncn1)c1ccc(C#CI)cc1 (configuration not stated)	122 °C
CC(C)(C)NC(=O)[C@@H]1C[C@H](Cl)CN1C(=O)OC(C)(C)C	149 to 150 °C
COC(=O)c1cc(Oc2cccnc2)c(C(F)(F)F)cc1[N+](=O)[O-]	98 to 100 °C
CC(=O)NC1=C(N)C(=O)c2cc(C)c(C)cc2C1=O	212 to 216 °C
CCOC(=O)C=Cc1ccc(Cl)c(Cl)c1	56 °C
CN1CCN(C(=O)OC2c3ccccc3C(=O)N2c2ccc3ccc(Br)nc3n2)CC1 (configuration not stated)	260 °C
CC(C)c1ccc2c(=O)c(S(C)=O)cn(C)c2c1 (configuration not stated)	214 to 215 °C
Cc1cc2c(cc1S(=O)(=O)c1cc(Cl)cc(Cl)c1)OC(C(=O)O)O2 (configuration not stated)	210 to 214 °C
C=C1CCC2C3CCC4=C(CC=C(OC)C4)C3CCC12C (configuration not stated)	77 to 78 °C
C=CCOC(=O)c1cc(C23CC4CC(CC(C4)C2)C3)c(OC)cc1F	101 to 102 °C
O=CC1(Nc2ccccc2)CCN(CCc2ccccc2)CC1	83 to 84 °C
CC1=Cc2cc(Br)ccc2S1(=O)=O	149 to 151 °C
OC(c1ccc(Cl)cc1)(c1ccc(Cl)cc1)c1nccn1Cc1ccc(Cl)cc1	171 to 173 °C

Continued, values first:

melting point	SMILES
135 to 136 °C	CCOC(=O)c1c(C(C)C)nc(-c2ccccc2)c(-c2ccccc2)c1-c1ccc(F)cc1
101 to 102 °C	CC(C)c1nn(-c2ccc(C(F)(F)F)cn2)cc1CCCOc1cccc(OC(C)(C)C(=O)O)c1
126 °C	CCN1CCN(C(=O)c2ccc(-c3cc(-c4n[nH]cc4-c4cccc(C)n4)ccn3)cc2)CC1
245 to 247 °C	CCOC(=O)Nc1nc(-c2ccccc2)c(-c2nc3ccccc3c(=O)n2-c2ccccc2)s1
> 270 °C	O=S(=O)(O)c1ccc(NCc2ccc(Cl)cc2)cc1
193 to 194 °C	CN1C(=O)Nc2ccc(-c3cccc(Cl)c3)cc2C1(C)C1CC1 (configuration not stated)
186 to 189 °C	CS(=O)(=O)c1ccc(-c2cnn(Cc3ccccc3)c(=O)c2Cc2ccc(F)cc2)cc1
216 to 218 °C	O=C(NCCCn1ccnc1)c1[nH]c2ccc(Cl)cc2c1S(=O)(=O)c1ccccc1
119 to 120 °C	CCOc1ccc(C2=NN(C(=O)c3cccc([N+](=O)[O-])c3)CCC2)cc1OCC
172 °C	COC(=O)C1Oc2ccc(Cl)cc2C(c2ccccc2)(c2ccccc2)O1 (configuration not stated)
96 to 98 °C	Oc1cccc(C2CCCN2Cc2ccccn2)c1 (configuration not stated)
151 to 152 °C	CNS(=O)(=O)c1cc(S(=O)(=O)NCc2ccccc2)c(Cl)cc1N
104 °C	CCC(C)N(C)C(=O)c1cc2sccc2c(-c2ccccc2)n1 (configuration not stated)
159 °C	O=C(Oc1ccc([N+](=O)[O-])cc1)C(=O)N1CCOC1=O
124 to 126 °C	COc1ccc(-n2cccc2-c2ccc(S(C)(=O)=O)cc2)cc1OC
87 to 92 °C	CCCCN(CC(O)C(Cc1ccccc1)NC(=O)C(C)CS(C)(=O)=O)S(=O)(=O)c1ccc(OC)cc1 (configuration not stated)
95 to 97 °C	Cc1ccc(S(=O)(=O)OCC2Cc3ccccc3C2)cc1
142 to 148 °C	COc1cc(C(=O)O)nc(-c2ccc(N(C)C)cc2)c1
159 to 161 °C	COCCn1nc2c(N)nc3ccccc3c2c1CCCCNS(C)(=O)=O
206 to 208 °C	CN1CCC(C2(O)c3ccccc3Oc3ccc(Cl)cc32)CC1 (configuration not stated)
131 to 133 °C	Fc1ccc(CN2CCCC(Nc3nccc(-c4c(-c5ccc(F)cc5)nc5sccn45)n3)C2)cc1 (configuration not stated)
108 to 111 °C	OC(c1cccnc1)c1ccc(Cl)cc1Cl (configuration not stated)
107 to 109 °C	CCOC(=O)NC(C(=O)OC)C(c1ccccc1)c1ccccc1 (configuration not stated)
87 to 88 °C	OCc1cc(OCc2ccccc2)nn1-c1ccccc1
162 to 167 °C	Cn1nc2c(-c3ccc(Cl)cc3Cl)cccc2c1C1=NCCO1
136 °C	CCc1nnc(-c2ccc(OC)cc2)n1-c1ccc(C(=O)N(C)C)cc1
131 to 132 °C	CCOC(=O)Cc1ccc(-c2nc(COc3ccc(COc4nn(-c5ccccc5)cc4/C=C/c4nc(N5CCCCC5)sc4C)cc3OC)c(C)o2)cc1
116 to 118 °C	Cn1cnc([N+](=O)[O-])c1Oc1ccccc1

melting point	SMILES
145 °C	CC(C)(C)C(O)C(CS(=O)(=O)c1ccccc1)n1cncn1 (configuration not stated)
109 to 110 °C	CCC(NC(C)=O)c1ccc(CN2CCN(c3ccccc3)CC2)cc1 (configuration not stated)
143 to 144 °C	C/C(=C\c1ccc(C(=O)N2CCOCC2)cc1)c1ccc2c(c1)C(C)(C)CCC2(C)C
156 to 157 °C	O=C1c2ccccc2C(Cc2ccnc(F)c2)(Cc2ccnc(F)c2)c2ccccc21
97 °C	CCCCC(CC)CNCCCOc1ccc2ccccc2c1 (configuration not stated)
94 to 97 °C	COc1cc(OCc2ccccn2)ccc1/C=C/c1cc(/C=C/c2ccc3cc[nH]c3c2)n(C(C)O)n1 (configuration not stated)
194 to 195 °C	CC(C)(O)C1CCN(Cc2ccc(C#CC(=O)Nc3ccc(-c4ccc(Cl)cc4)cc3)cc2)CC1
79 to 80 °C	c1ccc(-c2ccc(Cc3ccco3)[nH]2)cc1
200 to 206 °C	COc1cc2nc(N3CCc4c(CO)cccc4C3)[nH]c(=O)c2cc1OC
142 to 144 °C	CC(C)(COc1ccc(Cl)cc1)C(O)C(Oc1ccc(Cl)cc1)n1ccnc1 (configuration not stated)
170 to 175 °C	N#Cc1cc(C(F)(F)F)cnc1O
138 to 140 °C	COc1cc(N)c(Cl)cc1C(=O)NCC1CCN(CCCCCCCC(=O)c2ccccc2)CC1
121 °C	C[C@H]1C[C@@H](Nc2ccccc2)c2ccccc2N1C(=O)c1ccncc1 (relative stereo)
72.5 to 73.5 °C	CCCCS(=O)(=O)c1ccccc1C(=O)O
94 to 96 °C	CCCOC(C(Cc1ccc(Cl)cc1)n1cncn1)C1(C)COCOC1 (configuration not stated)
185 to 186 °C	Cc1cc(COc2ccc(F)c(C(N)=O)c2F)ccn1
65.7 to 66.8 °C	CN1CCN(c2ncccc2C#N)C(c2ccccc2)C1 (configuration not stated)
222 °C	Cn1c(-c2nnc(Cc3ccc(F)cc3)o2)c(O)c(=O)c2ccccc21
190 to 194 °C	CC(C)CC(NC(=O)c1ccc2c(N)cccc2n1)C(=O)NCC#N (configuration not stated)
138 to 140 °C	COc1ccc(C2CC(=O)Nc3ccccc3C(=O)C2)cc1 (configuration not stated)
84.5 to 87.5 °C	Cc1c2c(nn1-c1ccc(Cl)cc1F)CCCC2
124 °C	N#Cc1ccccc1NC(=O)c1snnc1C1CC1
256 to 258 °C	O=C(c1ccc(O)nc1)N1CCN=C1Nc1c(Cl)cccc1Cl
209 °C	Cc1ccc(-c2ccc(C(=O)Nc3ccc4cc(CN5CCCCCC5)cnc4c3)cc2)cc1
143 to 144 °C	CN(C)CCNC(=O)c1nc(N)sc1-c1ccccn1
112 to 115 °C	CC1CCCC(C)N1Cc1ccc(N)cc1 (configuration not stated)
143 to 145 °C	COCc1nc2c(NCc3c(C)cccc3C)cc(Br)cc2n1C
